Source: patent publication US8362065B2, “Carbazole carboxamide compounds useful as kinase inhibitors” (Bristol-Myers Squibb Company, priority 2008, dated 2013)
pIC50: −log10 of the molar value. Counter-ions that a name gives are not always drawn.

Molecular target: T1, human recombinant Btk (Homo sapiens, UniProt Q06187)
T1 construct: purchased Invitrogen Corporation
Test: Human Recombinant Btk Enzyme Assay
Format: biochemical
Conditions: human recombinant Btk 1 nM, ATP 20 μM, 60 min at room temperature; read-out: IC50 for Inhibition of Btk

T1 sequence (Q06187 whole entry): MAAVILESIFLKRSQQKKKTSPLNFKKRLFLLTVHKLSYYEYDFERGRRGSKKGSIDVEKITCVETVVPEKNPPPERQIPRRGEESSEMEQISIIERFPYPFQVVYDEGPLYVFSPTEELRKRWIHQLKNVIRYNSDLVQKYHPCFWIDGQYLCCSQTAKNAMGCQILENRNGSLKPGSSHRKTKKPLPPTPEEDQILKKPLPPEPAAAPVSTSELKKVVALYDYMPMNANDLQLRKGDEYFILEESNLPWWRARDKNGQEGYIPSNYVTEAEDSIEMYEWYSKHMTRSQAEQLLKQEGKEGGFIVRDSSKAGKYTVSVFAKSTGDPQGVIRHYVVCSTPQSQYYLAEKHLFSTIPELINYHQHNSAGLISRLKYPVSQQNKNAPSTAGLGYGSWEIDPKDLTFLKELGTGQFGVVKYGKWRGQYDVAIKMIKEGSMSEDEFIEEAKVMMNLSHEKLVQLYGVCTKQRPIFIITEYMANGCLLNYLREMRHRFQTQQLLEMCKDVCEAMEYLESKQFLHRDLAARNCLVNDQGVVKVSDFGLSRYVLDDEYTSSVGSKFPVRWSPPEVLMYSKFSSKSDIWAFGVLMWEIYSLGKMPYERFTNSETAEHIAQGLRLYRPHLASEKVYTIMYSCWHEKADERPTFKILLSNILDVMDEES

SMILES | pIC50
Cc1nc(N)sc1-c1ccc(C(N)=O)c2[nH]c3c(c12)CCC(C(=O)NC1CCOCC1)C3 (centres unmarked) [Example 4-3, 5-(2-amino-4-methylthiazol-5-yl)-N^2-(tetrahydro-2H-pyran-4-yl)-2,3,4,9-tetrahydro-1H-carbazole-2,8-dicarboxamide] | 6.41
Cc1c(NC(=O)c2cccnc2)cccc1-c1ccc(C(N)=O)c2[nH]c3cc(C(=O)N4CCN(C)CC4)ccc3c12 [Example 5-7] | 7.74
Cc1c(NC(=O)c2ncc[nH]2)cccc1-c1ccc(C(N)=O)c2[nH]c3cc(C(=O)N4CCN(C)CC4)ccc3c12 [Example 5-9, 4-(3-(1H-imidazole-2-carboxamido)-2-methylphenyl)-7-(4-methylpiperazine-1-carbonyl)-9H-carbazole-1-carboxamide (prepared as the TFA salt)] | 8.72
Cc1c(NC(=O)c2nc(C(C)C)cs2)cccc1-c1ccc(C(N)=O)c2[nH]c3cc(C(=O)N4CCN(C)CC4)ccc3c12 [Example 5-16] | 7.74
Cc1c(NC(=O)c2ncccc2O)cccc1-c1ccc(C(N)=O)c2[nH]c3cc(C(=O)N4CCN(C)CC4)ccc3c12 [Example 5-19, 4-(3-(3-hydroxypicolinamido)-2-methylphenyl)-7-(4-methylpiperazine-1-carbonyl)-9H-carbazole-1-carboxamide (prepared as the TFA salt)] | 7.77
Cc1c(NC(=O)C2(c3ccc(F)cc3)CC2)cccc1-c1ccc(C(N)=O)c2[nH]c3cc(C(=O)N4CCN(C)CC4)ccc3c12 [Example 5-42] | 7.82
Cc1c(NC(=O)C(C)(C)c2ccc(Cl)cc2)cccc1-c1ccc(C(N)=O)c2[nH]c3cc(C(=O)N4CCN(C)CC4)ccc3c12 [Example 5-44] | 7.80
Cc1ccc(C(=O)Nc2cccc(-c3ccc(C(N)=O)c4[nH]c5cc(C(=O)N6CCN(C)CC6)ccc5c34)c2C)cc1 [Example 5-58, 4-(2-methyl-3-(4-methylbenzamido)phenyl)-7-(4-methylpiperazine-1-carbonyl)-9H-carbazole-1-carboxamide (prepared as the TFA salt)] | 8.66
Cc1c(NC(=O)CC(C)C)cccc1-c1ccc(C(N)=O)c2[nH]c3cc(C(=O)N4CCN(C)CC4)ccc3c12 [Example 5-62, 4-(2-methyl-3-(3-methylbutanamido)phenyl)-7-(4-methylpiperazine-1-carbonyl)-9H-carbazole-1-carboxamide (prepared as the TFA salt)] | 7.77
Cc1c(NC(=O)c2ccc(S(N)(=O)=O)cc2)cccc1-c1ccc(C(N)=O)c2[nH]c3cc(C(=O)N4CCN(C)CC4)ccc3c12 [Example 5-69, 4-(2-methyl-3-(4-sulfamoylbenzamido)phenyl)-7-(4-methylpiperazine-1-carbonyl)-9H-carbazole-1-carboxamide (prepared as the TFA salt)] | 8.70
Cc1c(NC(=O)C2(C#N)CC2)cccc1-c1ccc(C(N)=O)c2[nH]c3cc(C(=O)N4CCN(C)CC4)ccc3c12 [Example 5-73, 4-(3-(1-cyanocyclopropanecarboxamido)-2-methylphenyl)-7-(4-methylpiperazine-1-carbonyl)-9H-carbazole-1-carboxamide (prepared as the TFA salt)] | 7.74
Cc1nc(NC(=O)c2ccccc2)sc1-c1ccc(C(N)=O)c2[nH]c3c(c12)CCC(C(=O)NC1CCOCC1)C3 (centres unmarked) [Example 5-86] | 6.04
Cc1c(NC(=O)Nc2ccccc2)cccc1-c1ccc(C(N)=O)c2[nH]c3cc(C(=O)N4CCN(C)CC4)ccc3c12 [Example 8-3, 4-(2-methyl-3-(3-phenylureido)phenyl)-7-(4-methylpiperazine-1-carbonyl)-9H-carbazole-1-carboxamide] | 7.80
Cc1c(NS(=O)(=O)CCCCl)cccc1-c1ccc(C(N)=O)c2[nH]c3cc(C(=O)N4CCN(C)CC4)ccc3c12 [Example 10-4, 4-(3-(3-chloropropylsulfonamido)-2-methylphenyl)-7-(4-methylpiperazine-1-carbonyl)-9H-carbazole-1-carboxamide] | 7.77
Cc1c(Nc2nccc3ccccc23)cccc1-c1ccc(C(N)=O)c2[nH]c3cc(C(=O)N4CCN(C)CC4)ccc3c12 [Example 11-1, 4-(3-(isoquinolin-1-ylamino)-2-methylphenyl)-7-(4-methylpiperazine-1-carbonyl)-9H-carbazole-1-carboxamide] | 7.82
Cc1c(-c2ccc(C(N)=O)c3[nH]c4cc(C(=O)N5CCN(C)CC5)ccc4c23)cccc1N1CCCS1(=O)=O [Example 12-1, 4-(3-(1,1-dioxoisothiazolidin-2-yl)-2-methylphenyl)-7-(4-methylpiperazine-1-carbonyl)-9H-carbazole-1-carboxamide] | 7.74
CN1CCN(C(=O)c2ccc3c(c2)[nH]c2c(C(N)=O)ccc(N4CCC[C@@H](N)C4)c23)CC1 [Example 17-1, (R)-4-(3-aminopiperidin-1-yl)-7-(4-methylpiperazine-1-carbonyl)-9H-carbazole-1-carboxamide] | 5.96
CN1CCN(C(=O)c2ccc3c(c2)[nH]c2c(C(N)=O)ccc(N4CCC[C@@H](NC(=O)Nc5nccs5)C4)c23)CC1 [Example 19-1, (R)-7-(4-methylpiperazine-1-carbonyl)-4-(3-(3-thiazol-2-ylureido)piperidin-1-yl)-9H-carbazole-1-carboxamide] | 7.77

SMILES | pIC50
CN1CCN(C(=O)c2ccc3c(c2)[nH]c2c(C(N)=O)ccc(N4CCCCC4=O)c23)CC1 [Example 20-1, 7-(4-methylpiperazine-1-carbonyl)-4-(2-oxopiperidin-1-yl)-9H-carbazole-1-carboxamide] | 6.29
Cc1c(NC(=O)c2ccc(F)cc2)cccc1-c1ccc(C(N)=O)c2[nH]c3cc(C(N)=O)ccc3c12 [Example 24-1, 4-(3-(4-fluorobenzamido)-2-methylphenyl)-9H-carbazole-1,7-dicarboxamide] | 7.77
Cc1c(NC(=O)c2ccc(F)cc2)cccc1-c1ccc(C(N)=O)c2[nH]c3cc(C(=O)N4CCN(CCO)CC4)ccc3c12 [Example 24-17, 4-(3-(4-fluorobenzamido)-2-methylphenyl)-7-(4-(2-hydroxyethyl)piperazine-1-carbonyl)-9H-carbazole-1-carboxamide (prepared as the TFA salt)] | 7.82
COc1cccc(NC(=O)c2ccc3c(c2)[nH]c2c(C(N)=O)ccc(-c4cccc(NC(=O)c5ccc(F)cc5)c4C)c23)c1 [Example 24-33, 4-(3-(4-fluorobenzamido)-2-methylphenyl)-N^7-(3-methoxyphenyl)-9H-carbazole-1,7-dicarboxamide (prepared as the TFA salt)] | 6.33
Cc1c(NC(=O)c2ccc(F)cc2)cccc1-c1ccc(C(N)=O)c2[nH]c3cc(C(=O)Nc4ccc(F)cc4)ccc3c12 [Example 24-34, 4-(3-(4-fluorobenzamido)-2-methylphenyl)-N^7-(4-fluorophenyl)-9H-carbazole-1,7-dicarboxamide (prepared as the TFA salt)] | 6.39
Cc1c(-c2ccc(C(N)=O)c3[nH]c4c(c23)CCC(CO)C4)cccc1N1C(=O)c2ccc(C(C)(C)C)cc2C1=O (centres unmarked) [Example 31-2, 5-(3-(5-tert-butyl-1,3-dioxoisoindolin-2-yl)-2-methylphenyl)-2-(hydroxymethyl)-2,3,4,9-tetrahydro-1H-carbazole-8-carboxamide] | 6.15
CC(=O)OCC1CCc2c([nH]c3c(C(N)=O)ccc(-c4cccc(N5C(=O)c6ccc(C(C)(C)C)cc6C5=O)c4C)c23)C1 (centres unmarked) [Example 31-3, (5-(3-(5-tert-butyl-1,3-dioxoisoindolin-2-yl)-2-methylphenyl)-8-carbamoyl-2,3,4,9-tetrahydro-1H-carbazol-2-yl)mEtOAc] | 5.82
Cc1c(-c2ccc(C(N)=O)c3[nH]c4cc(CN)ccc4c23)cccc1N1Cc2ccccc2C1=O [Example 33-1, 7-(aminomethyl)-4-(2-methyl-3-(1-oxoisoindolin-2-yl)phenyl)-9H-carbazole-1-carboxamide] | 8.72
Cc1c(-c2ccc(C(N)=O)c3[nH]c4cc(CNC(=O)CO)ccc4c23)cccc1N1Cc2ccccc2C1=O [Example 34-2, 7-((2-hydroxyacetamido)methyl)-4-(2-methyl-3-(1-oxoisoindolin-2-yl)phenyl)-9H-carbazole-1-carboxamide] | 8.70
CC(=O)NCc1ccc2c(c1)[nH]c1c(C(N)=O)ccc(-c3cccc(N4Cc5ccc(F)cc5C4=O)c3C)c12 [Example 38-2, 7-(acetamidomethyl)-4-(3-(6-fluoro-1-oxoisoindolin-2-yl)-2-methylphenyl)-9H-carbazole-1-carboxamide] | 8.68
Cc1c(NC(=O)c2ccc(F)cc2)cccc1-c1ccc(C(N)=O)c2[nH]c3cc(CN4CCCC4)ccc3c12 [Example 39-4] | 8.77
Cc1c(-c2ccc(C(N)=O)c3[nH]c4cc(O)ccc4c23)cccc1N1Cc2ccccc2C1=O [Example 41-1, 7-hydroxy-4-(2-methyl-3-(1-oxoisoindolin-2-yl)phenyl)-9H-carbazole-1-carboxamide] | 7.80
NC(=O)c1ccc(-c2ccccc2F)c2c3c([nH]c12)CCC(Oc1ccccc1)C3 (centres unmarked) [Example 47-2, 5-(2-fluorophenyl)-3-phenoxy-2,3,4,9-tetrahydro-1H-carbazole-8-carboxamide] | 5.38
NC(=O)c1ccc(-c2ccccc2F)c2c1[nH]c1ccc(Oc3ccccc3)cc12 [Example 48-2] | 5.77
NC(=O)c1ccc(Br)c2c1[nH]c1cc(NC(=O)OCc3ccccc3)ccc12 [Example 50-3, benzyl 5-bromo-8-carbamoyl-9H-carbazol-2-ylcarbamate] | 5.89
Cc1c(N)cccc1-c1ccc(C(N)=O)c2[nH]c3c(c12)CCC(NC(=O)OCc1ccccc1)C3 (centres unmarked) [Example 51-1, benzyl 5-(3-amino-2-methylphenyl)-8-carbamoyl-2,3,4,9-tetrahydro-1H-carbazol-2-ylcarbamate] | 6.40
Cc1c(-c2ccc(C(N)=O)c3[nH]c4cc(NC(=O)OCc5ccccc5)ccc4c23)cccc1N1Cc2cc(C(C)(C)C)ccc2C1=O [Example 51-4, benzyl 5-(3-(5-tert-butyl-1-oxoisoindolin-2-yl)-2-methylphenyl)-8-carbamoyl-9H-carbazol-2-ylcarbamate] | 5.80
